Test results from US20100093756A1, “HETEROARYL SUBSTITUTED THIENO[2,3-d]PYRIMIDINE AND THEIR USE AS ADENOSINE A2a RECEPTOR ANTAGONISTS” (priority 2008, published 2010).
Counter-ions that a name gives are not always drawn.

Tests used:
[1] = target: T1, human adenosine A1 receptor (Homo sapiens, UniProt P30542); experiment: Adenosine A1 Receptor Functional Assay (A1GAL2); assay type: cell-based; conditions: CHO-K1 cells, cAMP inducible beta-galactosidase reporter, 4 nM r-PIA/1 uM Forskolin agonist challenge
T1 construct: expressed in transfected cells; host or cells: CHO-K1
T1 sequence (P30542 1-326): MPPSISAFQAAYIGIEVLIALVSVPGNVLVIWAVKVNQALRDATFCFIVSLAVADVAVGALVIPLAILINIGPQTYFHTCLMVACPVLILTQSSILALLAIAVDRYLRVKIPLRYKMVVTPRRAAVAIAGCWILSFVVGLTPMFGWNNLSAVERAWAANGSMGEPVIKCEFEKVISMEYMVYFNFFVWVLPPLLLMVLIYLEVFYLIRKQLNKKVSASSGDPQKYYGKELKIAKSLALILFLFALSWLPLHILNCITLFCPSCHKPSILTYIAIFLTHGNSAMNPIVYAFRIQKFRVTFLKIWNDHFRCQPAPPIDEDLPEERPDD
Experimental: Adenosine A1 Receptor Functional Assay (A1GAL2)
To initiate the functional assay, cryopreserved CHO-K1 cells overexpressing the human adenosine A1 receptor and containing a cAMP inducible beta-galactosidase reporter gene were thawed, centrifuged, DMSO containing media removed, and then seeded with fresh culture media into clear 384-well tissue culture treated plates (BD #353961) at a concentration of 10K cells/well. Prior to assay, these plates were cultured for two days at 37° C., 5% CO2, 90% Rh. On the day of the functional assay, culture media was removed and replaced with 45 uL assay medium (Hams/F-12 Modified (Mediatech #10-080CV) supplemented w/0.1% BSA). Test compounds were diluted and 11 point curves created at a 1000× concentration in 100% DMSO. Immediately after addition of assay media to the cell plates, 50 nL of the appropriate test compound antagonist or agonist control curves were added to cell plates using a Cartesian Hummingbird. Compound curves were allowed to incubate at room temperature on cell plates for approximately 15 minutes before addition of a 4 nM r-PIA (Sigma P4532)/1 uM Forskolin (Sigma F3917) agonist challenge (5 uL volume). A control curve of r-PIA in 1 uM Forskolin, a DMSO/Media control, and a single dose of Forskolin were also included on each plate. After additions, cell plates were allowed to incubate at 37° C., 5% CO2, 90% Rh for 5.5-6 hours. After incubation, media was removed, and cell plates were washed 1×50 uL with DPBS w/o Ca & Mg (Mediatech 21-031-CV). Into dry wells, 20 uL of 1× Reporter Lysis Buffer (Promega E3971 (diluted in dH2O from 5× stock)) was added to each well and plates frozen at −20° C. overnight. For β-galactosidase enzyme colorimetric assay, plates were thawed out at room temperature and 20 μL 2× assay buffer (Promega) was added to each well. Color was allowed to develop at 37° C., 5% CO2, 90% Rh for 1-1.5 h or until reasonable signal appeared. The colorimetric reaction was stopped with the addition of 60 μL/well 1M sodium carbonate. Plates were counted at 405 nm on a SpectraMax Microplate Reader (Molecular Devices). Data was analyzed in Microsoft Excel and IC/EC50 curves were fit using a standardized macro.

[2] = target: T2, human adenosine A2a receptor (Homo sapiens, UniProt P29274); experiment: Adenosine A2a Receptor Functional Assay (A2AGAL2); assay type: cell-based; conditions: CHO-K1 cells, cAMP inducible beta-galactosidase reporter, 15 nM NECA agonist challenge
T2 construct: expressed in transfected cells; host or cells: CHO-K1
T2 sequence (P29274 whole entry): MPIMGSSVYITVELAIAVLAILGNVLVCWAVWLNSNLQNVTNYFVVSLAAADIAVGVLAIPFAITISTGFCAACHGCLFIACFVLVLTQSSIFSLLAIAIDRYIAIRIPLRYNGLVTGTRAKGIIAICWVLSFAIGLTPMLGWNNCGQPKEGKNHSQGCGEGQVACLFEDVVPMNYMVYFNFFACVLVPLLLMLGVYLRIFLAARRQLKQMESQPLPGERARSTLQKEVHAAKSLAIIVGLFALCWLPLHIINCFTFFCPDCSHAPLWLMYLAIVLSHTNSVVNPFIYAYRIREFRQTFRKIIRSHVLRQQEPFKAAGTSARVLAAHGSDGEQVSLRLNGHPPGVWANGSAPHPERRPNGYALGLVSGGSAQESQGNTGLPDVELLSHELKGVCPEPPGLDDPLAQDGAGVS
Experimental: Adenosine A2a Receptor Functional Assay (A2AGAL2)
To initiate the functional assay, cryopreserved CHO-K1 cells overexpressing the human adenosine A2a receptor and containing a cAMP inducible beta-galactosidase reporter gene were thawed, centrifuged, DMSO containing media removed, and then seeded with fresh culture media into clear 384-well tissue culture treated plates (BD #353961) at a concentration of 10K cells/well. Prior to assay, these plates were cultured for two days at 37° C., 5% CO2, 90% Rh. On the day of the functional assay, culture media was removed and replaced with 45 uL assay medium (Hams/F-12 Modified (Mediatech #10-080CV) supplemented w/0.1% BSA). Test compounds were diluted and 11 point curves created at a 1000× concentration in 100% DMSO. Immediately after addition of assay media to the cell plates, 50 nL of the appropriate test compound antagonist or agonist control curves were added to cell plates using a Cartesian Hummingbird. Compound curves were allowed to incubate at room temperature on cell plates for approximately 15 minutes before addition of a 15 nM NECA (Sigma E2387) agonist challenge (5 uL volume). A control curve of NECA, a DMSO/Media control, and a single dose of Forskolin (Sigma F3917) were also included on each plate. After additions, cell plates were allowed to incubate at 37° C., 5% CO2, 90% Rh for 5.5-6 hours. After incubation, media was removed, and cell plates were washed 1×50 uL with DPBS w/o Ca & Mg (Mediatech 21-031-CV). Into dry wells, 20 uL of 1× Reporter Lysis Buffer (Promega E3971 (diluted in dH2O from 5× stock)) was added to each well and plates frozen at −20° C. overnight. For β-galactosidase enzyme colorimetric assay, plates were thawed out at room temperature and 20μL 2× assay buffer (Promega) was added to each well. Color was allowed to develop at 37° C., 5% CO2, 90% Rh for 1-1.5 h or until reasonable signal appeared. The calorimetric reaction was stopped with the addition of 60 μL/well 1M sodium carbonate. Plates were counted at 405 nm on a SpectraMax Microplate Reader (Molecular Devices). Data was analyzed in Microsoft Excel and IC/EC50 curves were fit using a standardized macro.

[3] = target: T3, human A2a adenosine receptor (Homo sapiens, UniProt P29274); experiment: Ligand Binding Assay for Adenosine A2a Receptor (A2A-B); conditions: HEK293 cell plasma membrane, radioligand [3H]CGS21680
T3 construct: purchased PerkinElmer RB-HA2a; host or cells: HEK293 plasma membrane
T3 sequence (P29274 whole entry): as above
Experimental: Ligand Binding Assay for Adenosine A2a Receptor (A2A-B)
Ligand binding assay of adenosine A2a receptor was performed using plasma membrane of HEK293 cells containing human A2a adenosine receptor (PerkinElmer, RB-HA2a) and radioligand [^3H]CGS21680 (PerkinElmer, NET1021). Assay was set up in 96-well polypropylene plate in total volume of 200 μL by sequentially adding 20 μL 1:20 diluted membrane, 130 μL assay buffer (50 mM Tris.HCl, pH7.4 10 mM MgCl2, 1 mM EDTA) containing [^3H] CGS21680, 50 μL diluted compound (4×) or vehicle control in assay buffer. Nonspecific binding was determined by […] NECA. Reaction was carried out at room temperature for 2 hours before filtering through 96-well GF/C filter plate pre-soaked in 50 mM Tris.HCl, pH7.4 containing 0.3% polyethylenimine. Plates were then washed 5 times with cold 50 mM Tris.HCl, pH7.4, dried and sealed at the bottom. Microscintillation fluid 30 μL was added to each well and the top sealed. Plates were counted on Packard Topcount for [^3H]. Data was analyzed in Microsoft Excel and GraphPad Prism programs. (Varani, K.; Gessi, S.; Dalpiaz, A.; Borea, P. A. British Journal of Pharmacology, 1996, 117, 1693)

Row | Compound | Ki [1] [nM] | Ki [2] [nM] | Ki [3] [nM]
1 | 6-(6-Chloro-pyridin-3-ylmethyl)-2-(5-methyl-furan-2-yl)-thieno[2,3-d]pyrimidin-4-ylamine [Example 1] | 1590 | 126 | 
2 | Nc1nc(-c2ncco2)nc2sc(Cc3cccnc3)cc12 [Example 18, 2-Oxazol-2-yl-6-pyridin-3-ylmethyl-thieno[2,3-d]pyrimidin-4-ylamine] | 489 | 30 | 
3 | Nc1nc(-c2ccc(C(F)F)o2)nc2sc(Cc3ccccn3)cc12 [Example 35, 2-(5-Difluoromethyl-furan-2-yl)-6-pyridin-2-ylmethyl-thieno[2,3-d]pyrimidin-4-ylamine] | 61.9 | 4.73 | 
4 | CC(O)(c1ccccn1)c1cc2c(N)nc(-c3ccc(C(F)F)o3)nc2s1 (stereo not shown) [Example 36, 1-[4-Amino-2-(5-difluoromethyl-furan-2-yl)-thieno[2,3-d]pyrimidin-6-yl]-1-pyridin-2-yl-ethanol] | 267 | 36 | 
5 | Nc1nc(-c2ncco2)nc2sc(Cc3ccccn3)cc12 [Example 3, 2-Oxazol-2-yl-6-pyridin-2-ylmethyl-thieno[2,3-d]pyrimidin-4-ylamine hydrochloride] | 353 | 6.68 | 
6 | Nc1nc(-c2ccc(C(F)F)o2)nc2sc(C(=O)c3ncccc3F)cc12 [Example 25, [4-Amino-2-(5-difluoromethyl-furan-2-yl)-thieno[2,3-d]pyrimidin-6-yl]-(3-fluoro-pyridin-2-yl)-methanone] | 838 | 24.9 | 
7 | Nc1nc(-c2ccc(C(F)F)o2)nc2sc(C(O)c3ncccc3F)cc12 (stereo not shown) [Example 23, [4-Amino-2-(5-difluoromethyl-furan-2-yl)-thieno[2,3-d]pyrimidin-6-yl]-(3-fluoro-pyridin-2-yl)-methanol] | 59.5 | 3.77 | 
8 | Nc1nc(-c2ccc(C(F)F)o2)nc2sc(C(O)c3ncccc3Br)cc12 (stereo not shown) [Example 32, [4-Amino-2-(5-difluoromethyl-furan-2-yl)-thieno[2,3-d]pyrimidin-6-yl]-(3-bromo-pyridin-2-yl)-methanol] | 23.5 | 1.62 | 
9 | Nc1nc(-c2ccc(C(F)F)o2)nc2sc(C(O)c3ccccn3)cc12 (stereo not shown) [Example 31, [4-Amino-2-(5-difluoromethyl-furan-2-yl)-thieno[2,3-d]pyrimidin-6-yl]-pyridin-2-yl-methanol] | 46.9 | 4.82 | 
10 | COc1cccnc1C(O)c1cc2c(N)nc(-c3ccc(C(F)F)o3)nc2s1 (stereo not shown) [Example 29, [4-Amino-2-(5-difluoromethyl-furan-2-yl)-thieno[2,3-d]pyrimidin-6-yl]-(3-methoxy-pyridin-2-yl)-methanol] | 24.9 | 2.39 | 
11 | N#Cc1cccc(-c2nc(N)c3cc(Cc4cccnc4)sc3n2)n1 [Example 21, 6-(4-Amino-6-pyridin-3-ylmethyl-thieno[2,3-d]pyrimidin-2-yl)-pyridine-2-carbonitrile] | 28.2 | 5.25 | 
12 | Nc1nc(-c2ccc(C3CC3)o2)nc2sc(Cc3ccccn3)cc12 [Example 20, hydrochloride] | 337 | 130 | 
13 | COc1cccnc1Cc1cc2c(N)nc(-c3ccc(C(F)F)o3)nc2s1 [Example 37, 2-(5-Difluoromethyl-furan-2-yl)-6-(3-methoxy-pyridin-2-ylmethyl)-thieno[2,3-d]pyrimidin-4-ylamine] | 32.6 | 2.28 | 
14 | Cc1csc(-c2nc(N)c3cc(Cc4ccccn4)sc3n2)n1 [Example 17, 2-(4-Methyl-thiazol-2-yl)-6-pyridin-2-ylmethyl-thieno[2,3-d]pyrimidin-4-ylamine] | 100 | 7.09 | 
15 | Nc1nc(-c2cnco2)nc2sc(Cc3ccccn3)cc12 [Example 15, 2-Oxazol-5-yl-6-pyridin-2-ylmethyl-thieno[2,3-d]pyrimidin-4-ylamine] | 172 | 9.66 | 
16 | Nc1nc(-c2ccc(C3CC3)o2)nc2sc(Cc3cccnc3)cc12 [Example 19, 2-(5-Cyclopropyl-furan-2-yl)-6-pyridin-3-ylmethyl-thieno[2,3-d]pyrimidin-4-ylamine] | 579 | 409 | 
17 | Nc1nc(-c2ccc(C(F)F)o2)nc2sc(Cc3ncccc3Br)cc12 [Example 33, 6-(3-Bromo-pyridin-2-ylmethyl)-2-(5-difluoromethyl-furan-2-yl)-thieno[2,3-d]pyrimidin-4-ylamine] | 21.2 | 2.18 | 
18 | Nc1nc(-c2ccc(C(F)F)o2)nc2sc(Cc3ncccc3F)cc12 [Example 24, 2-(5-Difluoromethyl-furan-2-yl)-6-(3-fluoro-pyridin-2-ylmethyl)-thieno[2,3-d]pyrimidin-4-ylamine] | 92.6 | 6.21 | 
19 | Nc1nc(-c2ccc(C(F)F)o2)nc2sc(C(O)c3ncccc3O)cc12 (stereo not shown) [Example 34, 2-{[4-Amino-2-(5-difluoromethyl-furan-2-yl)-thieno[2,3-d]pyrimidin-6-yl]-hydroxy-methyl}-pyridin-3-ol] | 111 | 4.29 | 
20 | Cc1ccc(-c2nc(N)c3cc(Cc4ccccn4)sc3n2)o1 [Example 16, 2-(5-Methyl-furan-2-yl)-6-pyridin-2-ylmethyl-thieno[2,3-d]pyrimidin-4-ylamine] | 29.9 | 1.18 | 
21 | CC(O)(c1cc2c(N)nc(-c3ccc(C(F)F)o3)nc2s1)c1ncccc1F (stereo not shown) [Example 30, 1-[4-Amino-2-(5-difluoromethyl-furan-2-yl)-thieno[2,3-d]pyrimidin-6-yl]-1-(3-fluoro-pyridin-2-yl)-ethanol] | 403 | 11.4 | 16.3
